Test results reported in ChEMBL document CHEMBL4706477, “Synthesis and Biological Evaluation of Calothrixins B and their Deoxygenated Analogues” (J Med Chem, 2018).
Calls of active or inactive are those of the source. No cut-off for these calls is given here.

Key:
[1] = tested on: Calf thymus DNA; test: Binding affinity to calf thymus DNA assessed as hyperchromic shift measured at 432 nm at 3*10^-5 mol/L by double beam UV-Vis spectroscopic analysis; type: nucleic-acid assay; settings: Bos taurus
[2] = tested on: NCI-H460; test: Induction of apoptosis in human NCI-H460 cells assessed as nuclear fragmentation at 2 uM incubated for 48 hrs by acridine orange/propidium iodide double staining based fluorescence microscopy analysis; type: functional, cell-based
[3] = physchem; settings: octanol/buffer, pH 7.4
Description: Octanol/buffer distribution coefficient, log D of the compound at pH 7.4

[4] = tested on: HCT-116; test: Induction of DNA damage in human HCT-116 cells assessed as tail length at 0.5 uM incubated for 48 hrs by alkaline Comet assay relative to control; type: functional, cell-based
[5] = tested on: NCI-H460; test: Induction of apoptosis in human NCI-H460 cells assessed as increase in cleaved PARP protein levels at 3 uM incubated for 48 hrs by Western blot analysis; type: functional, cell-based
[6] = tested on: HCT-116; test: cells; settings: Homo sapiens, HCT-116, 48 h
Description: Antiproliferative activity against human HCT-116 cells assessed as reduction in cell viability incubated for 48 hrs by sulphorhodamine B assay

[7] = tested on: HCT-116; test: Induction of apoptosis in human HCT-116 cells assessed as reduction in PARP protein levels at 3 uM incubated for 48 hrs by Western blot analysis; type: functional, cell-based
[8] = tested on: Jurkat; test: cells; settings: Homo sapiens, 48 h
Description: Antiproliferative activity against human Jurkat cells assessed as reduction in cell viability incubated for 48 hrs by sulphorhodamine B assay

[9] = tested on: U-251; test: cells; settings: Homo sapiens, U-251, 48 h
Description: Antiproliferative activity against human U-251 cells assessed as reduction in cell viability incubated for 48 hrs by sulphorhodamine B assay

[10] = tested on: HCT-116; test: Induction of cell cycle arrest in human HCT-116 cells assessed as accumulation of cells at sub-G1 phase at 2 uM incubated for 48 hrs by propidium iodide staining based flow cytometry analysis; type: functional
[11] = tested on: HeLa; test: Induction of apoptosis in human HeLa cells assessed as increase in cleaved PARP levels at 1 uM by Western blot analysis; type: functional, cell-based; settings: time 6-24 hrs, TDE = time-dependent effect
[12] = tested on: SiHa; test: cells; settings: Homo sapiens, 48 h
Description: Antiproliferative activity against human SiHa cells assessed as reduction in cell viability incubated for 48 hrs by sulphorhodamine B assay

[13] = tested on: MCF7; test: cells; settings: Homo sapiens, MCF7, 48 h
Description: Antiproliferative activity against human MCF7 cells assessed as reduction in cell viability incubated for 48 hrs by sulphorhodamine B assay

[14] = target: T1, DNA topoisomerase 2-alpha (Homo sapiens, UniProt P11388); test: Inhibition of recombinant human topoisomerase 2 assessed as decrease in relaxation of supercoiled pBlue-Script KS(+) plasmid DNA at < 100 uM incubated for 30 mins by ethidium bromide staining based gel electrophoresis method; settings: dose microM <100, time 30.0 min
[15] = tested on: Calf thymus DNA; test: Binding affinity to calf thymus DNA assessed as hypsochromic shift absorbance measured at 284 nm at 3*10^-5 mol/L by double beam UV-Vis spectroscopic analysis; type: nucleic-acid assay; settings: Bos taurus
[16] = tested on: Calf thymus DNA; test: Binding affinity to calf thymus DNA assessed as hyperchromic shift measured at 362 nm at 3*10^-5 mol/L by double beam UV-Vis spectroscopic analysis; type: nucleic-acid assay; settings: Bos taurus
[17] = tested on: HCT-116; test: Induction of cell cycle arrest in human HCT-116 cells assessed as accumulation of cells at G1/S phase at 2 uM incubated for 48 hrs by propidium iodide staining based flow cytometry analysis; type: functional
[18] = tested on: MDA-MB-231; test: cells; settings: Homo sapiens, MDA-MB-231, 48 h
Description: Antiproliferative activity against human MDA-MB-231 cells assessed as reduction in cell viability incubated for 48 hrs by sulphorhodamine B assay

[19] = tested on: HCT-116; test: cells; settings: Homo sapiens, HCT-116, 48 h; remark: listed apart in the source
Description: Antiproliferative activity against human HCT-116 p53-/- cells assessed as reduction in cell viability incubated for 48 hrs by sulphorhodamine B assay

[20] = tested on: HCT-116; test: Induction of apoptosis in human HCT-116 cells assessed as nuclear fragmentation at 2 uM incubated for 48 hrs by acridine orange/propidium iodide double staining based fluorescence microscopy analysis; type: functional, cell-based
[21] = tested on: NCI-H460; test: cells; settings: Homo sapiens, NCI-H460, 48 h
Description: Antiproliferative activity against human NCI-H460 cells assessed as reduction in cell viability incubated for 48 hrs by sulphorhodamine B assay

[22] = physchem; settings: octanol/water
Description: Octanol/water partition coefficient, log P of the compound

[23] = tested on: HeLa; test: cells; settings: Homo sapiens, 48 h
Description: Antiproliferative activity against human HeLa cells assessed as reduction in cell viability incubated for 48 hrs by sulphorhodamine B assay

[24] = target: T1, DNA topoisomerase 2-alpha; test: Inhibition of recombinant human topoisomerase 2 assessed as decrease in relaxation of supercoiled pBlue-Script KS(+) plasmid DNA at 200 uM incubated for 30 mins by ethidium bromide staining based gel electrophoresis method
[25] = tested on: Calf thymus DNA; test: Binding affinity to calf thymus DNA assessed as hypochromic effect at 3*10^-5 mol/L by double beam UV-Vis spectroscopic analysis; type: nucleic-acid assay; settings: Bos taurus
[26] = tested on: NCI-H460; test: Induction of apoptosis in human NCI-H460 cells assessed as chromatin condensation at 2 uM incubated for 48 hrs by acridine orange/propidium iodide double staining based fluorescence microscopy analysis; type: functional, cell-based
[27] = tested on: HCT-116; test: Induction of apoptosis in human HCT-116 cells assessed as chromatin condensation at 2 uM incubated for 48 hrs by acridine orange/propidium iodide double staining based fluorescence microscopy analysis; type: functional, cell-based
[28] = tested on: HEK293; test: Antiproliferative activity against human HEK293 cells assessed as reduction in cell viability incubated for 48 hrs by sulphorhodamine B assay; type: functional
[29] = target: T2, DNA topoisomerase 1 (Homo sapiens) (UniProt P11387); test: Inhibition of human topoisomerase 1 assessed as induction of negative supercoiled DNA using relaxed pBlue-Script KS(+) plasmid DNA as substrate measured after 15 mins by agarose gel electrophoresis analysis; settings: dose 60-100 µM
T2 sequence (whole entry): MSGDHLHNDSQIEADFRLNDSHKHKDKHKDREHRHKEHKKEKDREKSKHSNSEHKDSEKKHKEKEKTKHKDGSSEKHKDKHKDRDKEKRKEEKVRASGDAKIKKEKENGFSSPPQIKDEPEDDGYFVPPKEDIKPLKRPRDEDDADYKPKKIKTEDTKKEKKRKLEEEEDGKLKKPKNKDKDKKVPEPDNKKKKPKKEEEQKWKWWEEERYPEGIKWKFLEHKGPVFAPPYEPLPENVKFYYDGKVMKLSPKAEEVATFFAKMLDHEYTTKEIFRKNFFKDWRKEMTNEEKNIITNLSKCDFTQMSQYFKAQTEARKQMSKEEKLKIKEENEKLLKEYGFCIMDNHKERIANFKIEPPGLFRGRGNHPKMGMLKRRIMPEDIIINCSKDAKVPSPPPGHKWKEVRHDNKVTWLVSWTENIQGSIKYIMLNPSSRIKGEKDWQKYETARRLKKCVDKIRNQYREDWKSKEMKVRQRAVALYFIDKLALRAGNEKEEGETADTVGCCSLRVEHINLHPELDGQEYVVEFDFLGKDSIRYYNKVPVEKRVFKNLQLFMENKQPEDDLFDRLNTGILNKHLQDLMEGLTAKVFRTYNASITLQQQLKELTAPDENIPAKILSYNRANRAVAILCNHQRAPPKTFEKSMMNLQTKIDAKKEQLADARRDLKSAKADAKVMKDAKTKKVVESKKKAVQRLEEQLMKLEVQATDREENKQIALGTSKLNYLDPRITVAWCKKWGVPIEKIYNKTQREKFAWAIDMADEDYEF

[30] = target: T1, DNA topoisomerase 2-alpha; test: Inhibition of recombinant human topoisomerase 2 assessed as decrease in relaxation of supercoiled pBlue-Script KS(+) plasmid DNA incubated for 30 mins by ethidium bromide staining based gel electrophoresis method
[31] = tested on: A549; test: Antiproliferative activity against human A549 cells assessed as reduction in cell viability incubated for 48 hrs by sulphorhodamine B assay; type: functional
[32] = tested on: HCT-116; test: Induction of DNA damage in human HCT-116 cells assessed as tail length at 5 uM incubated for 48 hrs by alkaline Comet assay relative to control; type: functional, cell-based
[33] = tested on: HCT-116; test: Anticlonogenic activity against human HCT-116 cells assessed as inhibition of colony formation at 5 uM incubated for 48 hrs followed by compound washout with PBS and measured after 14 days by crystal violet staining based analysis; type: functional, cell-based
[34] = tested on: Calf thymus DNA; test: Binding affinity to calf thymus DNA assessed as DNA intercalation by measuring positive CD band at 20*10^-6 mol/L by CD spectroscopy; type: nucleic-acid assay; settings: Bos taurus
[35] = tested on: Calf thymus DNA; test: Binding affinity to calf thymus DNA assessed as DNA intercalation by measuring positive CD band at 26.6*10^-6 mol/L by CD spectroscopy; type: nucleic-acid assay; settings: Bos taurus
[36] = tested on: Calf thymus DNA; test: Binding affinity to calf thymus DNA assessed as hyperchromic effect measured at 299 nm at 3*10^-5 mol/L by double beam UV-Vis spectroscopic analysis; type: nucleic-acid assay; settings: Bos taurus
[37] = tested on: NCI-H460; test: Induction of DNA damage in human NCI-H460 cells at 5 uM incubated for 48 hrs by alkaline Comet assay relative to control; type: functional, cell-based
[38] = tested on: NCI-H460; test: Anticlonogenic activity against human NCI-H460 cells assessed as inhibition of colony formation at 5 uM incubated for 48 hrs followed by compound washout with PBS and measured after 14 days by crystal violet staining based analysis; type: functional, cell-based
[39] = tested on: HCT-116; test: Induction of cell cycle arrest in human HCT-116 cells assessed as accumulation of cells at G2/M phase at 5 uM incubated for 48 hrs by propidium iodide staining based flow cytometry analysis; type: functional
[40] = tested on: HCT-116; test: Induction of cell cycle arrest in human HCT-116 cells at 5 uM incubated for 20 hrs by propidium iodide staining based flow cytometry analysis; type: functional
[41] = target: T1, DNA topoisomerase 2-alpha; test: Inhibition of recombinant human topoisomerase 2 assessed as decrease in relaxation of supercoiled pBlue-Script KS(+) plasmid DNA at 40 uM incubated for 30 mins by ethidium bromide staining based gel electrophoresis method relative to control
[42] = target: T1, DNA topoisomerase 2-alpha; test: Inhibition of human topoisomerase 2 assessed as inhibition of etoposide-induced DNA cleavage complex formation by measuring linear DNA formation at 30 to 50 uM incubated for 30 mins using pRYG DNA as substrate by agarose gel electrophoresis analysis; settings: dose 30-50 µM

T1 sequence (P11388 whole entry): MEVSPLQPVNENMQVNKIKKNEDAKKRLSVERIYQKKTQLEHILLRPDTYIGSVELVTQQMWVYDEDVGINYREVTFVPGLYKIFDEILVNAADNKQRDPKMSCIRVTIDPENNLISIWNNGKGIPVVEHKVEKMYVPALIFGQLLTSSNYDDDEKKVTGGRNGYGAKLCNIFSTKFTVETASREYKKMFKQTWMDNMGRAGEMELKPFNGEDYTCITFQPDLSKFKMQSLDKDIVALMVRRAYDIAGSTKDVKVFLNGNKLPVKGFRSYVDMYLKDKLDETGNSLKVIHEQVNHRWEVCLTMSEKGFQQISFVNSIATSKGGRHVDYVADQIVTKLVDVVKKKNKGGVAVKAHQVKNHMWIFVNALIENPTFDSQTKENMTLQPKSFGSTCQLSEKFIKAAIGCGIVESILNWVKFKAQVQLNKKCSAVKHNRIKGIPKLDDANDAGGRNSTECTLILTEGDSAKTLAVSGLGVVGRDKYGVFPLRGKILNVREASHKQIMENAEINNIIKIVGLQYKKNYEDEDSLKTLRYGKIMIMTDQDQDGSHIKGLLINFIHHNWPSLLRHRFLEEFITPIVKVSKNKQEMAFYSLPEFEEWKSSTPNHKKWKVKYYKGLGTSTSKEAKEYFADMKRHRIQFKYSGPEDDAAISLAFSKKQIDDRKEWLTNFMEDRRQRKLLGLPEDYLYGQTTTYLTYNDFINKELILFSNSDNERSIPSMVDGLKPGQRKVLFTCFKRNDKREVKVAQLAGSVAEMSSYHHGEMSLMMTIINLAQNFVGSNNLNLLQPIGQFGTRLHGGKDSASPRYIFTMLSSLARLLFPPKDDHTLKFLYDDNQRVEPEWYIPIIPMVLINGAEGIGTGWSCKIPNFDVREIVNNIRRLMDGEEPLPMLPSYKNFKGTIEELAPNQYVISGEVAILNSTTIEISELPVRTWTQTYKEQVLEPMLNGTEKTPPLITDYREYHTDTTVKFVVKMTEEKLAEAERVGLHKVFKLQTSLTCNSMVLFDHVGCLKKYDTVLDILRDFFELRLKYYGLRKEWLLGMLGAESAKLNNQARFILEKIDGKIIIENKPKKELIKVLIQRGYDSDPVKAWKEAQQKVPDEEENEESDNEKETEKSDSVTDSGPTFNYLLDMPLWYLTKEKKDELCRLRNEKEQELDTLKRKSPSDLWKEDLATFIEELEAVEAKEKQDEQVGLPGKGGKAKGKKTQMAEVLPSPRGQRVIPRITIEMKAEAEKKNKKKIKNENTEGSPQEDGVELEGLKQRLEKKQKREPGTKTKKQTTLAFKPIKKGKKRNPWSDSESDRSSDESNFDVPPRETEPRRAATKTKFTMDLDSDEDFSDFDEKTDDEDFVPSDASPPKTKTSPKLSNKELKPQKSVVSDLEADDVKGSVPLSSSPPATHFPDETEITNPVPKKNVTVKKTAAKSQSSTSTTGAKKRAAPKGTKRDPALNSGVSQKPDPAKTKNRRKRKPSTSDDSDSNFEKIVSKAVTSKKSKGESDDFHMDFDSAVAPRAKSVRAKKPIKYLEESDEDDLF

Structure (SMILES): O=C1c2c[n+]([O-])c3ccccc3c2C(=O)c2[nH]c3ccccc3c21 [CALOTHRIXIN A]
- Activity [1]: 13%
- Activity [2]: Active
- logD [3]: 1.02
- Activity [4]: Active
- Activity [5]: Active
- GI50 [6]: 110 nM
- Activity [7]: Active
- GI50 [8]: 70 nM
- GI50 [9]: 80 nM
- Activity [10]: Active
- Activity [11]: Tde
- GI50 [12]: 50 nM
- GI50 [13]: 30 nM
- inhibition [14]: inactive
- Activity [15]: 10 nm
- Activity [16]: 12%
- Activity [17]: Active
- GI50 [18]: 40 nM
- GI50 [19]: 80 nM
- Activity [20]: Active
- GI50 [21]: 220 nM
- logP [22]: 1.32
- GI50 [23]: 80 nM
- inhibition [24]: Active
- Activity [25]: 13%
- Activity [26]: Active
- Activity [27]: Active

Structure (SMILES): c1ccc2c(c1)ncc1cc3c(cc12)[nH]c1ccccc13
- logD [3]: -1.55
- GI50 [6]: 11500 nM
- GI50 [28]: > 4000 nM
- GI50 [8]: 4000 nM
- Activity [29]: Dose-dependent effect
- GI50 [9]: > 4000 nM
- GI50 [12]: > 4000 nM
- GI50 [13]: > 4000 nM
- IC50 [30]: 23400 nM
- IC90 [30]: 41500 nM
- inhibition [30]: Dose-dependent effect
- GI50 [31]: > 4000 nM
- GI50 [18]: > 4000 nM
- Activity [32]: inactive
- inhibition [33]: inactive
- Activity [34]: Active
- Activity [35]: Active
- GI50 [21]: 5500 nM
- logP [22]: -1.25
- Activity [36]: 30%
- GI50 [23]: 410 nM
- Activity [37]: inactive
- inhibition [24]: 100%
- inhibition [38]: inactive
- Activity [39]: inactive
- Activity [40]: inactive
- inhibition [41]: 97%
- inhibition [42]: Active
